From BigSolDB 2.1

CO/N=C(\C(=O)O)c1csc(N)n1
solubility (mole fraction) (in ethanol, 283.12 K): 6.9e-05 | solubility (mole fraction) (in ethanol, 288.42 K): 8.31e-05 | solubility (mole fraction) (in ethanol, 293.23 K): 0.000101 | solubility (mole fraction) (in ethanol, 298.17 K): 0.000124 | solubility (mole fraction) (in ethanol, 303.33 K): 0.000151 | solubility (mole fraction) (in ethylene glycol, 283.11 K): 0.00129 | solubility (mole fraction) (in ethylene glycol, 288.68 K): 0.00152 | solubility (mole fraction) (in ethylene glycol, 293.41 K): 0.00175 | solubility (mole fraction) (in ethylene glycol, 298.26 K): 0.002 | solubility (mole fraction) (in ethylene glycol, 303.46 K): 0.0023 | solubility (mole fraction) (in methanol, 283.75 K): 0.000293 | solubility (mole fraction) (in methanol, 288.17 K): 0.000334 | solubility (mole fraction) (in methanol, 293.36 K): 0.00038 | solubility (mole fraction) (in methanol, 298.26 K): 0.00043 | solubility (mole fraction) (in methanol, 303.1 K): 0.000489 | solubility (mole fraction) (in n-propanol, 282.85 K): 2.14e-05 | solubility (mole fraction) (in n-propanol, 288.05 K): 2.49e-05 | solubility (mole fraction) (in n-propanol, 293.09 K): 3.1e-05 | solubility (mole fraction) (in n-propanol, 298.3 K): 4.25e-05 | solubility (mole fraction) (in n-propanol, 303.08 K): 5.94e-05 | solubility (mole fraction) (in water, 283.67 K): 0.000356 | solubility (mole fraction) (in water, 288.48 K): 0.000416 | solubility (mole fraction) (in water, 293.22 K): 0.000483 | solubility (mole fraction) (in water, 298.36 K): 0.000557 | solubility (mole fraction) (in water, 303.22 K): 0.000637
